Ratio Ki, EC50 and Ki data for 13 compounds are collected here from ChEMBL document CHEMBL3797097 (J Med Chem, 2016).

Structures are written as SMILES. pEC50, pKi: −log10 of the molar value.

For assay [1], the species on record is Homo sapiens. The experiment in a line: Selectivity index, ratio Ki for human D3 receptor to Ki for human D2 receptor using [3H]7-OH-DPAT displacement assay.
For assay [2], the target named is T1, D(3) dopamine receptor (Homo sapiens, UniProt P35462). The experiment in a line: Agonist activity at human D3 receptor transfected in HEK293T cells by BRET based G0 activation assay. Type of assay: cell-based, HEK-293T.
T1 sequence (P35462 whole entry): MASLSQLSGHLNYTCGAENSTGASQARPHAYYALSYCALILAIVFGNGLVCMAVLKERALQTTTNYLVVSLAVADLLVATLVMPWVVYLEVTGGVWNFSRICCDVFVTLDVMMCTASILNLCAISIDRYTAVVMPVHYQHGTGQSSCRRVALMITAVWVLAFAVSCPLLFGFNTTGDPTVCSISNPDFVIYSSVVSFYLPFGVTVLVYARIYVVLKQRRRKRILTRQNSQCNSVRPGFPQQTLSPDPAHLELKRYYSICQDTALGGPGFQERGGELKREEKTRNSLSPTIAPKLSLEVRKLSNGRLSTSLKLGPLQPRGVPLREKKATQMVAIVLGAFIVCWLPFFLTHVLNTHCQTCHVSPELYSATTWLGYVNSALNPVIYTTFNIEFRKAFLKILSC
The target in assay [3] is T1, D(3) dopamine receptor. The experiment in a line: Displacement of [3H]N-methylspiperone from human D3 receptor transfected in HEK293 cells measured after 60 mins by liquid scintillation counter. Type of assay: cell-based.
For assay [4], the target named is T1, D(3) dopamine receptor. The experiment in a line: Displacement of [3H]7-OH-DPAT from human D3 receptor transfected in HEK293 cells measured after 60 mins by liquid scintillation counter. Type of assay: cell-based.
Assay [5] deals with T1, D(3) dopamine receptor. The experiment in a line: Agonist activity at recombinant human D3 receptor expressing in CHOp cells assessed as receptor mediated stimulation of mitogenesis measured as [3H]thymidine incorporation after 24 hrs by scintillation spectrometry. Type of assay: cell-based.
Assay [6] concerns the target T2, D(2) dopamine receptor (Homo sapiens, UniProt P14416). The experiment in a line: Agonist activity at recombinant human D2 receptor expressing in CHOp cells assessed as receptor mediated stimulation of mitogenesis measured as [3H]thymidine incorporation after 24 hrs by scintillation spectrometry. Type of assay: cell-based.
The species entered for assay [7] is Homo sapiens. The assay is described as follows: Selectivity index, ratio Ki for human D3 receptor to Ki for human D2 receptor using [3H]N-methylspiperone displacement assay.
Assay [8] concerns the target T2, D(2) dopamine receptor. The assay is described as follows: biochemical. Type of assay: cell-based, HEK293.
Assay [9] addresses T2, D(2) dopamine receptor. The assay is described as follows: biochemical. Type of assay: cell-based, HEK293. The source holds these as a separate data set.
Assay [10] deals with T2, D(2) dopamine receptor. The assay is described as follows: Agonist activity at human D2 receptor transfected in HEK293T cells by BRET based G0 activation assay. Type of assay: cell-based, HEK-293T.

T2 sequence (P14416 whole entry): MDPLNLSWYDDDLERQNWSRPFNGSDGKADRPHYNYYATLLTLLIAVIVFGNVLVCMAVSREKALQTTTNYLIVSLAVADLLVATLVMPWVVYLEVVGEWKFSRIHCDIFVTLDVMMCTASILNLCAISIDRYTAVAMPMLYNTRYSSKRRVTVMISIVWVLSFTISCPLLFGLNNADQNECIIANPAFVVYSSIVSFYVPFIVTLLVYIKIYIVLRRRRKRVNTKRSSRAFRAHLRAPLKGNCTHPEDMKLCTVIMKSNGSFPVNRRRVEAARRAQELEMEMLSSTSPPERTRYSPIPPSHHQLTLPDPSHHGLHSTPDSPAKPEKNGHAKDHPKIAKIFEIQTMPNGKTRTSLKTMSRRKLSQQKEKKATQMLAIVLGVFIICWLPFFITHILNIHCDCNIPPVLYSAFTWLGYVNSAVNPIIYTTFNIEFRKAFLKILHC

On to `CCCN(CCC)[C@@H]1Cc2cccc3nc(O)n(c23)C1`, for which the Ratio Ki in the assay listed under Homo sapiens [1] stood at 2.4.

For the compound `CCCN[C@@H]1Cc2cccc3nc(O)n(c23)C1`, the figures for the pEC50 at D(3) dopamine receptor [2] and at D(3) dopamine receptor [5] were 7.74 and 9.09, respectively. In addition, the results for the pKi at D(3) dopamine receptor [3] and on D(3) dopamine receptor [4] were 6.39 and 7.59, respectively.

With `N[C@@H]1Cc2cccc3[nH]c(=O)n(c23)C1`, the negative logarithm of the EC50 (pEC50) is 5.72 on D(3) dopamine receptor [2], 6.16 on D(2) dopamine receptor [6], 6.16 on D(2) dopamine receptor [10] and 5.47 at D(3) dopamine receptor [5]. Further, the Ratio Ki in the assay filed under Homo sapiens [7] was 0.98; in the assay listed under Homo sapiens [1] it was 30. Also, the pKi on D(3) dopamine receptor [3] is 4.93; at D(2) dopamine receptor [8], 6.94; on D(2) dopamine receptor [9], 4.92; on D(3) dopamine receptor [4] it was 5.47.

In the case of `CCCN(CCC)[C@@H]1Cc2cccc3[nH]c(=O)n(c23)C1`, the pEC50 was 7.66 at D(3) dopamine receptor [2] and 8.60 at D(2) dopamine receptor [10]. In addition, the pKi on D(2) dopamine receptor [8] is 7.94; on D(3) dopamine receptor [4], 7.57.

As for `CN(CCCCNC(=O)c1cc2ccccc2[nH]1)[C@@H]1Cc2cccc3[nH]c(=O)n(c23)C1`, the pEC50 is 7.03 at D(3) dopamine receptor [2] and 7.28 on D(3) dopamine receptor [5]. Further, the pKi on D(3) dopamine receptor [3] was 6.47; at D(3) dopamine receptor [4], 7.11.

Turning to `CCCn1c(=O)n2c3c(cccc31)C[C@@H](NC)C2`, the pEC50 on D(3) dopamine receptor [2] was 7.27; at D(2) dopamine receptor [6] it was 6.26; on D(2) dopamine receptor [10] it was 7.41; at D(3) dopamine receptor [5], 6.75. Moreover, the values for the Ratio Ki in the assay listed under Homo sapiens [7] and in the assay filed under Homo sapiens [1] were 0.25 and 7.5, respectively. The pKi at D(3) dopamine receptor [3] was 6.73; at D(2) dopamine receptor [8] it was 7.88; on D(2) dopamine receptor [9] it was 6.12; on D(3) dopamine receptor [4], 7.00.

For the compound `CCCCn1c(=O)n2c3c(cccc31)C[C@@H](NC)C2`, the pEC50 at D(3) dopamine receptor [2] is 7.59; at D(2) dopamine receptor [6], 7.08; on D(2) dopamine receptor [10], 7.52; at D(3) dopamine receptor [5], 7.66. Moreover, the Ratio Ki in the assay filed under Homo sapiens [7] worked out at 0.03; in the assay listed under Homo sapiens [1], 11. Also, the pKi at D(3) dopamine receptor [3] was 7.99; at D(2) dopamine receptor [8], 7.89; at D(2) dopamine receptor [9], 6.44; at D(3) dopamine receptor [4] it was 6.85.

Regarding `CCCN[C@@H]1Cc2cccc3c2n(c(=O)n3CCC)C1`, the pEC50 at D(3) dopamine receptor [2] was 5.85; at D(2) dopamine receptor [6] it was 7.89; at D(2) dopamine receptor [10], 7.17; at D(3) dopamine receptor [5], 7.25. Also, the Ratio Ki is 0.06 in the assay filed under Homo sapiens [7] and 2.7 in the assay filed under Homo sapiens [1]. Moreover, the pKi at D(3) dopamine receptor [3] is 7.32; at D(2) dopamine receptor [8] it was 8.09; on D(2) dopamine receptor [9], 6.06; at D(3) dopamine receptor [4], 7.66.

In the case of `CN[C@@H]1Cc2cc(C#N)cc3[nH]c(=O)n(c23)C1`, the pKi on D(3) dopamine receptor [3] is 4.57; on D(2) dopamine receptor [8], 5.29.

Regarding `CN(CCCCNC(=O)c1ccc2c(c1)Cc1ccccc1-2)[C@@H]1Cc2cccc3[nH]c(=O)n(c23)C1`, the pEC50 is 6.90 at D(3) dopamine receptor [2], 6.99 at D(2) dopamine receptor [6], 6.96 on D(2) dopamine receptor [10] and 7.92 on D(3) dopamine receptor [5]. The Ratio Ki is 0.29 in the assay filed under Homo sapiens [7] and 2.3 in the assay listed under Homo sapiens [1]. Also, the pKi at D(3) dopamine receptor [3] was 5.96; at D(2) dopamine receptor [8], 8.26; at D(2) dopamine receptor [9], 5.43; at D(3) dopamine receptor [4] it was 7.90.

On to `CN[C@@H]1Cc2cccc3[nH]c(=O)n(c23)C1` [SUMANIROLE], for which the pEC50 is 6.73 at D(3) dopamine receptor [2] and 6.17 on D(3) dopamine receptor [5]. Besides, the pKi was 5.20 on D(3) dopamine receptor [3] and 6.26 at D(3) dopamine receptor [4].

Regarding `CCCN(CCC)[C@@H]1Cc2cccc3c2n(c(=O)n3CCC)C1`, the pEC50 at D(3) dopamine receptor [2] is 7.28; on D(2) dopamine receptor [6] it was 7.86; on D(2) dopamine receptor [10] it was 7.47; at D(3) dopamine receptor [5] it was 8.43. In addition, the Ratio Ki in the assay filed under Homo sapiens [7] came to 0.04; in the assay listed under Homo sapiens [1], 1.3. Moreover, the pKi was 8.22 on D(3) dopamine receptor [3], 8.59 at D(2) dopamine receptor [8], 6.84 at D(2) dopamine receptor [9] and 8.47 at D(3) dopamine receptor [4].

On to `CCCN(C)[C@@H]1Cc2cccc3[nH]c(=O)n(c23)C1`, for which the pEC50 is 7.51 on D(3) dopamine receptor [2], 7.74 at D(2) dopamine receptor [6], 7.54 at D(2) dopamine receptor [10] and 6.83 on D(3) dopamine receptor [5]. For the same compound, the Ratio Ki was 0.25 in the assay filed under Homo sapiens [7] and 8.3 in the assay listed under Homo sapiens [1]. For the same compound, the pKi on D(3) dopamine receptor [3] was 6.54; at D(2) dopamine receptor [8], 7.90; on D(2) dopamine receptor [9], 5.93; on D(3) dopamine receptor [4], 6.98.
